Results published in ChEMBL document CHEMBL4715698, “Design and synthesis of novel selective anaplastic lymphoma kinase inhibitors” (Bioorg Med Chem Lett, 2016).
In brackets after ≈: the same amount, converted by molar mass.

Tests used:
BaF3 = assay: Antiproliferative activity against wild type mouse BaF3 cells assessed as reduction in cell growth incubated for 2 to 3 days by Bright-Glo luciferase assay
EML4-ALK = EML4-ALK (Homo sapiens, UniProt Q9UM73); assay: Inhibition EML4-ALK (unknown origin); assay type: protein assay
[1] = target: NPM/ALK (Nucleophosmin/ALK tyrosine kinase receptor) (Homo sapiens, UniProt Q9UM73); assay: Inhibition NMP-ALK (unknown origin); assay type: protein assay
[2] = target: ALK tyrosine kinase receptor (Homo sapiens, UniProt Q9UM73); assay: Inhibition of ALK (unknown origin)
[3] = target: Tyrosine-protein kinase BTK (Homo sapiens, UniProt Q06187); assay: Inhibition of BTK (unknown origin)
[4] = target: Tyrosine-protein kinase ABL1 (Homo sapiens, UniProt P00519); assay: Inhibition of ABL (unknown origin)
[5] = target: RAC-alpha serine/threonine-protein kinase (Homo sapiens, UniProt P31749); assay: Inhibition of AKT (unknown origin)
[6] = Inhibition of Aurora (unknown origin); parameters: species or system Homo sapiens
[7] = target: Cyclin-dependent kinase 2 (Homo sapiens, UniProt P24941); assay: Inhibition of CDK2 (unknown origin)
[8] = target: Glycogen synthase kinase-3 beta (Homo sapiens, UniProt P49841); assay: Inhibition of GSK3beta (unknown origin)
[9] = target: Tyrosine-protein kinase JAK1 (Homo sapiens, UniProt P23458); assay: Inhibition of JAK1 (unknown origin)
[10] = target: Tyrosine-protein kinase JAK2 (Homo sapiens, UniProt O60674); assay: Inhibition of JAK2 (unknown origin)
[11] = target: Tyrosine-protein kinase JAK3 (Homo sapiens, UniProt P52333); assay: Inhibition of JAK3 (unknown origin)
[12] = target: Mitogen-activated protein kinase 1 (Homo sapiens, UniProt P28482); assay: Inhibition of MAPK1 (unknown origin)
[13] = target: Serine/threonine-protein kinase PLK1 (Homo sapiens, UniProt P53350); assay: Inhibition of PLK1 (unknown origin)
[14] = target: Non-receptor tyrosine-protein kinase TYK2 (Homo sapiens, UniProt P29597); assay: Inhibition of TYK2 (unknown origin)
Ephrin type-A receptor 4 = Ephrin type-A receptor 4 (Homo sapiens, UniProt P54764); assay: Inhibition of EphA4 (unknown origin)
Ephrin type-B receptor 4 = Ephrin type-B receptor 4 (Homo sapiens, UniProt P54760); assay: Inhibition of EphB4 (unknown origin)
[15] = target: Fibroblast growth factor receptor 4 (Homo sapiens, UniProt P22455); assay: Inhibition of FGFR4 (unknown origin)
[16] = target: Fibroblast growth factor receptor 3 (Homo sapiens, UniProt P22607); assay: Inhibition of FGFR3 (unknown origin)
[17] = target: Epidermal growth factor receptor (Homo sapiens, UniProt P00533); assay: Inhibition of HER1 (unknown origin)
[18] = target: Receptor tyrosine-protein kinase erbB-2 (Homo sapiens, UniProt P04626); assay: Inhibition of HER2 (unknown origin)
[19] = target: Insulin-like growth factor 1 receptor (Homo sapiens, UniProt P08069); assay: Inhibition of IGF-1R (unknown origin)
[20] = target: Vascular endothelial growth factor receptor 2 (Homo sapiens, UniProt P35968); assay: Inhibition of KDR (unknown origin)
[21] = target: Tyrosine-protein kinase Lck (Homo sapiens, UniProt P06239); assay: Inhibition of LCK (unknown origin)
[22] = target: Platelet-derived growth factor receptor alpha (Homo sapiens, UniProt P16234); assay: Inhibition of PDGFRalpha (unknown origin)
[23] = target: Proto-oncogene tyrosine-protein kinase receptor Ret (Homo sapiens, UniProt P07949); assay: Inhibition of RET (unknown origin)
[24] = target: Tyrosine-protein kinase SYK (Homo sapiens, UniProt P43405); assay: Inhibition of SYK (unknown origin)
[25] = target: Mast/stem cell growth factor receptor Kit (Homo sapiens, UniProt P10721); assay: Inhibition of c-KIT (unknown origin)
[26] = target: Hepatocyte growth factor receptor (Homo sapiens, UniProt P08581); assay: Inhibition of MET (unknown origin)
[27] = Metabolic stability in mouse liver microsomes assessed as intrinsic clearance; assay type: ADME, Microsome; details: read-out: CLH
[28] = Metabolic stability in rat liver microsomes assessed as intrinsic clearance; assay type: ADME, Microsome; details: read-out: CLH
[29] = Metabolic stability in human liver microsomes assessed as intrinsic clearance; assay type: ADME, Microsome; details: read-out: CLH
Cytochrome P450 3A4 = Cytochrome P450 3A4 (Homo sapiens, UniProt P08684); assay: Inhibition of CYP3A4 (unknown origin) using midazolam as substrate; assay type: ADME
[30] = Solubility in DMSO at pH 6.8 by high-throughput solubility assay; assay type: physicochemical
[31] = Permeability of compound by PAMPA assay; assay type: ADME
[32] = target: Voltage-gated inwardly rectifying potassium channel KCNH2 (Homo sapiens, UniProt Q12809); assay: Inhibition of human ERG by dofetilide binding assay
[33] = Clearance in mouse at 5 mg/kg, iv; assay type: ADME, organism-based; details: in vivo
[34] = Volume of distribution at steady state in mouse at 5 mg/kg, iv; assay type: ADME, organism-based; details: in vivo, read-out: Vdss
[35] = Cmax in mouse at 20 mg/kg, po; assay type: ADME, organism-based; parameters: route oral, dose 20 mg/kg; details: in vivo
[36] = AUC in mouse at 20 mg/kg, po; assay type: ADME, organism-based; parameters: dose 20 mg/kg; details: in vivo
[37] = Oral bioavailability in mouse at 20 mg/kg; assay type: ADME, organism-based; details: in vivo
[38] = Clearance in rat at 3 mg/kg, iv; assay type: ADME, organism-based; details: in vivo
[39] = Volume of distribution at steady state in rat at 3 mg/kg, iv; assay type: ADME, organism-based; details: in vivo, read-out: Vdss
[40] = Cmax in rat at 10 mg/kg, po; assay type: ADME, organism-based; parameters: route oral, dose 10 mg/kg; details: in vivo
[41] = AUC in rat at 10 mg/kg, po; assay type: ADME, organism-based; parameters: dose 10 mg/kg; details: in vivo
[42] = Oral bioavailability in rat at 10 mg/kg; assay type: ADME, organism-based; details: in vivo
KARPAS-299 [43] = assay: Antitumor activity against human KARPAS-299 cells harboring NMP-ALK xenografted in SCID mouse assessed as tumor regression administered for 9 days and measured on day 9; assay type: functional; details: time 9.0 day
KARPAS-299 [44] = assay: Antitumor activity against human KARPAS-299 cells harboring NMP-ALK xenografted in SCID mouse assessed as tumor shrinkage by measuring T/C ratio at 25 mg/kg administered for 9 days and measured on day 9 (reference value: 100 %); assay type: functional; details: time 9 day
KARPAS-299 [45] = assay: Antitumor activity against human KARPAS-299 cells harboring NMP-ALK xenografted in SCID mouse assessed as tumor regression by measuring T/C ratio at 50 mg/kg administered for 9 days and measured on day 9 (reference value: 100 %); assay type: functional; details: time 9 day
[46] = Toxicity in SCID mouse xenografted with human KARPAS-299 cells harboring NMP-ALK assessed as reduction in body weight at 25 to 50 mg/kg administered for 9 days and measured on day 9; assay type: organism-based; details: in vivo, 216 h, dose 25-50 mg/kg, time 9 day

Sequence of Cytochrome P450 3A4 (P08684 whole entry): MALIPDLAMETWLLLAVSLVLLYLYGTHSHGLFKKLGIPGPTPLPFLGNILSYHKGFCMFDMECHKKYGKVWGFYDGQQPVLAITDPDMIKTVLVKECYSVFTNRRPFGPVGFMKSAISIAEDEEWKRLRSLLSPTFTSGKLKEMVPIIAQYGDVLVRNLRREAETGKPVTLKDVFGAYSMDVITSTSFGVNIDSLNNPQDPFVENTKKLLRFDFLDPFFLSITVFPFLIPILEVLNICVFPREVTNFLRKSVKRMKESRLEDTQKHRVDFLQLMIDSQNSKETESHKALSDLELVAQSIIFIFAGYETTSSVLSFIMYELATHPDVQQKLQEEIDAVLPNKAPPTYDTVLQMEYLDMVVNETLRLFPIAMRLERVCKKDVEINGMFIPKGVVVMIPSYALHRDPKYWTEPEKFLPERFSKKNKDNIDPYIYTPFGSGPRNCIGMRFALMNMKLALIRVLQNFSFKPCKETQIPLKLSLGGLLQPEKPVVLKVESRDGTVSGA
Sequence of Voltage-gated inwardly rectifying potassium channel KCNH2 (Q12809 whole entry): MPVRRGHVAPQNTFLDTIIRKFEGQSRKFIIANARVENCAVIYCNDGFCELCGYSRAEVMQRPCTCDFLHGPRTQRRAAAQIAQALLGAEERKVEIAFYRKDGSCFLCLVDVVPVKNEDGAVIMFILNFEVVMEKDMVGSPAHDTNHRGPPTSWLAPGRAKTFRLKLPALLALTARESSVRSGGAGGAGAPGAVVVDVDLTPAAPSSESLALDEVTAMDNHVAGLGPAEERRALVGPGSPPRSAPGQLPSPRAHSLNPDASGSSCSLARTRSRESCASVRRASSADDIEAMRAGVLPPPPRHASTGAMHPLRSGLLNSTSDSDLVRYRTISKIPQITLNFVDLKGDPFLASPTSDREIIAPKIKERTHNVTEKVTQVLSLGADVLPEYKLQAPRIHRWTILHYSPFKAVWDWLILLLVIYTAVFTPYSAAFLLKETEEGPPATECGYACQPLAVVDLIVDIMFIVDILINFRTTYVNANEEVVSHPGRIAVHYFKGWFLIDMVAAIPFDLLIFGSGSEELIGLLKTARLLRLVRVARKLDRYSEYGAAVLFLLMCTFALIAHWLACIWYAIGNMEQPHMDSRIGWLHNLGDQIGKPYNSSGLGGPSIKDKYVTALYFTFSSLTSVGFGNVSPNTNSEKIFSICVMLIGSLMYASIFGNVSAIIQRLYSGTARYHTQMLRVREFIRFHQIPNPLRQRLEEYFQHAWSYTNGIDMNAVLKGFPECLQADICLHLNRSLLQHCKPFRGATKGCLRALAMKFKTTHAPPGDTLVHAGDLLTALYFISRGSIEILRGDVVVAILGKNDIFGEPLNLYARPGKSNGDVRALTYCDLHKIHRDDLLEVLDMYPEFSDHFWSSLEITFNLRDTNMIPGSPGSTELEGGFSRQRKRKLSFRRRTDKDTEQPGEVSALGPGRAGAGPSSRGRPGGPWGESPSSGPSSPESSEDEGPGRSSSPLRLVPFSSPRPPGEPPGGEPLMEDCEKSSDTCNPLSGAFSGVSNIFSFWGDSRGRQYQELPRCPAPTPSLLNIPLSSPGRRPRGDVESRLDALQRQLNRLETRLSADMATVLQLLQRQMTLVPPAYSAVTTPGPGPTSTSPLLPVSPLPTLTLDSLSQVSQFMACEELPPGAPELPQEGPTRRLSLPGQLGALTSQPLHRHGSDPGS
Sequence of ALK tyrosine kinase receptor (Q9UM73 whole entry): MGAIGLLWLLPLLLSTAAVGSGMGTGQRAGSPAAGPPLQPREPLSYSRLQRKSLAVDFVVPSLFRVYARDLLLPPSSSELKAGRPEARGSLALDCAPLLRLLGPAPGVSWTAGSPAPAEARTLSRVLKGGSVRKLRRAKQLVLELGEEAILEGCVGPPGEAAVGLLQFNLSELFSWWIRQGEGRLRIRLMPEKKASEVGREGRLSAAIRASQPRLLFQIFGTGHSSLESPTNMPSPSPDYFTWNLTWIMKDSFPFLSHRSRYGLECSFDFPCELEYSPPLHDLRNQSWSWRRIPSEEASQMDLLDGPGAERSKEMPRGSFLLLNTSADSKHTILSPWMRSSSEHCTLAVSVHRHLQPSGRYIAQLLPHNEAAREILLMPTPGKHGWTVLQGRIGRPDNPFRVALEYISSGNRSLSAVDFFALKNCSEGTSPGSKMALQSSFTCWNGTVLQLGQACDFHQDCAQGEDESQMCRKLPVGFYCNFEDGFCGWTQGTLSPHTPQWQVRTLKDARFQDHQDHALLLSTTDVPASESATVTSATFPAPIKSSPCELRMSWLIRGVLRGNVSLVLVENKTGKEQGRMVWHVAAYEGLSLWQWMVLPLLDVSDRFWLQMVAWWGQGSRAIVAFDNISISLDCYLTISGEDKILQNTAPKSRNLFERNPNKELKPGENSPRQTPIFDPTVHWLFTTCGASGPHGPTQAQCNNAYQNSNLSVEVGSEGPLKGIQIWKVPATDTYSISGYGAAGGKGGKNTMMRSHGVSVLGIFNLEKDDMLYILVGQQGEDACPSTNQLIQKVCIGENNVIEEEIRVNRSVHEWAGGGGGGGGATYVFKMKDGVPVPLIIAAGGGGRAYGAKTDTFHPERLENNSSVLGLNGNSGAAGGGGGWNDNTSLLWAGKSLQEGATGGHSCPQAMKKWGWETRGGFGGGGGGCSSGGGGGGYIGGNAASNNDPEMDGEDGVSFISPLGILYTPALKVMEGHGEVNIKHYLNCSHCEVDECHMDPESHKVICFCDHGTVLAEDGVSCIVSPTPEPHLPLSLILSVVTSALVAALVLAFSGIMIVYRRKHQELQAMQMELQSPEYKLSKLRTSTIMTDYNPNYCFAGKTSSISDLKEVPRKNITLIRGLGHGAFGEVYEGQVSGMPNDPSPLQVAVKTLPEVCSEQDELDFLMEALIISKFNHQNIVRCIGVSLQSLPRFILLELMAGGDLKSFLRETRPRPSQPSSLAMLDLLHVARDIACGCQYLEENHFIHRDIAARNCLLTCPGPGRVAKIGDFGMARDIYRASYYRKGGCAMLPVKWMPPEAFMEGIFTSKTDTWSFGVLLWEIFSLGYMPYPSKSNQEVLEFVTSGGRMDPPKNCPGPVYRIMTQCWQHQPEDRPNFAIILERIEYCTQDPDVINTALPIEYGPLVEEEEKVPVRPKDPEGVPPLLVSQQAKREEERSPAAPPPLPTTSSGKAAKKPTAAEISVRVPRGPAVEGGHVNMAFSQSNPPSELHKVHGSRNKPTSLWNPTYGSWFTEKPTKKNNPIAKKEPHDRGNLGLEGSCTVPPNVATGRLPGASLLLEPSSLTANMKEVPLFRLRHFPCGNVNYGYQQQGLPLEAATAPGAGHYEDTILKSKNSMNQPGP
Sequence of Tyrosine-protein kinase JAK3 (P52333 whole entry): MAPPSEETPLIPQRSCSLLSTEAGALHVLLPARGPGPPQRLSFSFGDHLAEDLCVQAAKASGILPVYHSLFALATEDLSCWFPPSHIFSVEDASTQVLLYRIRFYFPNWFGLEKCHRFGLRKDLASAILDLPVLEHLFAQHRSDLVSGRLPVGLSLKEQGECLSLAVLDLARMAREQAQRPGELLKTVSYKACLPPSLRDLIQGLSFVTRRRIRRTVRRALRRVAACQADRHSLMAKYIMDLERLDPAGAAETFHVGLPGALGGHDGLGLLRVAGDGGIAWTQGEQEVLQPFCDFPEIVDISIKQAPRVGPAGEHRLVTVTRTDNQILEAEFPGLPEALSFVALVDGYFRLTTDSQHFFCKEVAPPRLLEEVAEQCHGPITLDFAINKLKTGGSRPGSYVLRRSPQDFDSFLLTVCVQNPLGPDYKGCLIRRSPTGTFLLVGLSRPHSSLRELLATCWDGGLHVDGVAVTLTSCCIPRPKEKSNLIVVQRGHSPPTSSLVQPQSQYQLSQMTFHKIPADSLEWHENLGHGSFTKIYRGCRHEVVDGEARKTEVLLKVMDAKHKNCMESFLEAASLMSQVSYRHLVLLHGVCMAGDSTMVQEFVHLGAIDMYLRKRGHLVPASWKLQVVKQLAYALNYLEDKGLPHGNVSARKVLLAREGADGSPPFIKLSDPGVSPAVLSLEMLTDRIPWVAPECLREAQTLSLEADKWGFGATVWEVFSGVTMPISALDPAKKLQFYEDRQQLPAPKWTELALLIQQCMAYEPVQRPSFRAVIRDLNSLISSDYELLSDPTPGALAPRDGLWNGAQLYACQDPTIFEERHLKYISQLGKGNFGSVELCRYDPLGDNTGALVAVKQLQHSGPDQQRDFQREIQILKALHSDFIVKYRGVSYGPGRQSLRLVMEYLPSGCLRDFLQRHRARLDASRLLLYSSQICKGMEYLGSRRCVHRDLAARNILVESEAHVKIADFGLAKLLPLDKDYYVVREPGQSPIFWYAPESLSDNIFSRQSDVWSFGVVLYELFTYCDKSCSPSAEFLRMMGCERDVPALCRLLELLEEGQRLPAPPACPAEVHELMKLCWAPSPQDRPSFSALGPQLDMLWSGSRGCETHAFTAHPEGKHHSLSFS
Sequence of Glycogen synthase kinase-3 beta (P49841 whole entry): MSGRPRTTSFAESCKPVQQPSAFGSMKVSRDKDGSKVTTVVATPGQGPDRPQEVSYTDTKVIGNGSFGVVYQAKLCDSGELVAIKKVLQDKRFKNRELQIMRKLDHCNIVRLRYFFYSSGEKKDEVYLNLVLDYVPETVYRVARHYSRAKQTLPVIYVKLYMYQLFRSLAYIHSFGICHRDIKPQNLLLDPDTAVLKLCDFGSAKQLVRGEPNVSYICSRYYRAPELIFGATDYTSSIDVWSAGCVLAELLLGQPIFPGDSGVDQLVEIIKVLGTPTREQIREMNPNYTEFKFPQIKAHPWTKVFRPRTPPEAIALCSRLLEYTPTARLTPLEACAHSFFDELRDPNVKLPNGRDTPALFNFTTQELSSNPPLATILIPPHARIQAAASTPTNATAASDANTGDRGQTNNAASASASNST

Cc1cc2c(Nc3ccccc3S(=O)(=O)C(C)C)nc(Nc3cc(C)c(C4CCN(C)CC4)cc3OC(C)C)nc2[nH]1
IC50 (BaF3): 5.73 µM

COc1ccc2nc(Nc3cc(C)c(C4CCN(C)CC4)cc3OC(C)C)nc(Nc3ccccc3S(=O)(=O)C(C)C)c2c1
IC50 (BaF3): 3.94 µM

Cc1cc(Nc2nc(Nc3ccccc3S(=O)(=O)C(C)C)c3c(C)[nH]nc3n2)c(OC(C)C)cc1C1CCN(C)CC1
IC50 (EML4-ALK): 10 nM | IC50 [1]: 30 nM | IC50 (BaF3): 2.51 µM | IC50 [2]: 4 nM | IC50 [3]: 9.4 µM | IC50 [4]: 1400 nM | IC50 [5]: 7.6 µM | IC50 [6]: > 10 µM | IC50 [7]: 920 nM | IC50 [8]: 4.3 µM | IC50 [9]: > 10 µM | IC50 [10]: > 10 µM | IC50 [11]: > 10 µM | IC50 [12]: > 10 µM | IC50 [13]: 3.9 µM | IC50 [14]: > 10 µM | IC50 (Ephrin type-A receptor 4): > 10 µM | IC50 (Ephrin type-B receptor 4): 2900 nM | IC50 [15]: > 10 µM | IC50 [16]: > 10 µM | IC50 [17]: 960 nM | IC50 [18]: 7.8 µM | IC50 [19]: 470 nM | IC50 [20]: 7.4 µM | IC50 [21]: 4.3 µM | IC50 [22]: 9.7 µM | IC50 [23]: 3.6 µM | IC50 [24]: > 10 µM | IC50 [25]: > 10 µM | IC50 [26]: 8.1 µM | microsomal CLint [27]: 13 µL/min/mg | microsomal CLint [28]: 33 µL/min/mg | microsomal CLint [29]: 19 µL/min/mg | IC50 (Cytochrome P450 3A4): > 25 µM | solubility [30]: 114 µM (≈ 67.5 µg/mL) | log(permeability) [31]: -4.9 | IC50 [32]: 20800 nM | clearance [33]: 71 mL/min/kg | Vd [34]: 12.1 L/kg | Cmax [35]: 429 nM | AUC [36]: 4.9 µM·h | bioavailability [37]: 58% | clearance [38]: 32 mL/min/kg | Vd [39]: 19.4 L/kg | Cmax [40]: 151 nM | AUC [41]: 3.07 µM·h | bioavailability [42]: 35% | Activity (KARPAS-299 [43]): Dose-dependent effect | T/C (KARPAS-299 [44]): 37% | T/C (KARPAS-299 [45]): -54% | Activity [46]: Non-Toxic

Cc1cc(Nc2nc(Nc3ccccc3S(=O)(=O)C(C)C)c3cn[nH]c3n2)c(OC(C)C)cc1C1CCNCC1
IC50 (BaF3): 6.22 µM

Cc1cc(Nc2nc(Nc3ccccc3S(=O)(=O)C(C)C)c3ccccc3n2)c(OC(C)C)cc1C1CCN(C)CC1
IC50 (BaF3): 3.24 µM

Cc1cc(Nc2cc(Nc3ccccc3S(=O)(=O)C(C)C)c3cc[nH]c3n2)c(OC(C)C)cc1C1CCN(C)CC1
IC50 (BaF3): 4.91 µM | IC50 [2]: > 25000 nM

Cc1cc2c(Nc3ccccc3S(=O)(=O)C(C)C)nc(Nc3cc(C)c(C4CCNCC4)cc3OC(C)C)nc2[nH]1
IC50 (BaF3): 5.41 µM

Cc1cc(Nc2nc(Nc3ccccc3S(=O)(=O)C(C)C)c3c(N)n[nH]c3n2)c(OC(C)C)cc1C1CCN(C)CC1
IC50 (BaF3): 4.5 µM

Cc1cc(NC2=NC3NCCCC3C(Nc3ccccc3S(=O)(=O)C(C)C)=N2)c(OC(C)C)cc1C1CCNCC1 (configuration not stated)
IC50 (BaF3): 2.03 µM

Cc1cc(Nc2cc(Nc3ccccc3S(=O)(=O)C(C)C)nc3[nH]ccc23)c(OC(C)C)cc1C1CCN(C)CC1
IC50 (BaF3): 2.6 µM

Cc1cc(Nc2nc(Nc3ccccc3S(=O)(=O)C(C)C)c3[nH]nnc3n2)c(OC(C)C)cc1C1CCN(C)CC1
IC50 (BaF3): > 10 µM

Cc1cc(Nc2nc(Nc3ccccc3S(=O)(=O)C(C)C)c3cccnc3n2)c(OC(C)C)cc1C1CCNCC1
IC50 (BaF3): 7.23 µM

Cc1cc(Nc2nc(Nc3ccccc3S(=O)(=O)C(C)C)c3cc[nH]c3n2)c(OC(C)C)cc1C1CCNCC1
IC50 (BaF3): 2.22 µM | microsomal CLint [27]: 15 µL/min/mg | microsomal CLint [28]: 14 µL/min/mg | microsomal CLint [29]: 22 µL/min/mg | IC50 (Cytochrome P450 3A4): 4.6 µM | solubility [30]: 8.1 µM (≈ 4.56 µg/mL) | log(permeability) [31]: -5.7 | clearance [33]: 40 mL/min/kg | Vd [34]: 7.3 L/kg | Cmax [35]: 51 nM | AUC [36]: 0.406 µM·h | bioavailability [37]: 3%

Cc1cc(Nc2nc(Nc3ccccc3S(=O)(=O)C(C)C)c3cn[nH]c3n2)c(OC(C)C)cc1C1CCN(C)CC1
IC50 (BaF3): 5.12 µM | microsomal CLint [27]: 37 µL/min/mg | microsomal CLint [28]: 30 µL/min/mg | microsomal CLint [29]: 32 µL/min/mg | IC50 (Cytochrome P450 3A4): 3.3 µM | solubility [30]: > 175 µM | log(permeability) [31]: -4.1 | IC50 [32]: 1000 nM

Cc1cc(Nc2nc(Nc3ccccc3S(=O)(=O)C(C)C)c3cc[nH]c3n2)c(OC(C)C)cc1C1CCN(C)CC1
IC50 (BaF3): 3.42 µM | microsomal CLint [27]: 62 µL/min/mg | microsomal CLint [28]: 34 µL/min/mg | microsomal CLint [29]: 25 µL/min/mg | IC50 (Cytochrome P450 3A4): 4.5 µM | solubility [30]: 10.4 µM (≈ 6 µg/mL) | log(permeability) [31]: < -3.3 | IC50 [32]: 1700 nM | clearance [33]: 58 mL/min/kg | Vd [34]: 10.8 L/kg | Cmax [35]: 425 nM | AUC [36]: 5.98 µM·h | bioavailability [37]: 59% | clearance [38]: 15 mL/min/kg | Vd [39]: 13.7 L/kg | Cmax [40]: 291 nM | AUC [41]: 7.19 µM·h | bioavailability [42]: 35%

Cc1cc(Nc2nc(Nc3ccccc3S(=O)(=O)C(C)C)c3c(C)n[nH]c3n2)c(OC(C)C)cc1C1CCNCC1
IC50 (BaF3): 5.54 µM
